Read-outs that look alike come from different tables or passages of the source.

The target of one assay is T1, mMC5R (Mus musculus, UniProt P41149).
T1 construct: expressed in transfected cells; host or cells: HEK-293
The assay can be described thus: Functional bioassay (CRE/β-galactosidase reporter), agonist activity at mMC5R. The class given is cell-based. Conditions: HEK-293 cells stably expressing receptor; ± SEM. The protocol: (§1) For cell culture and transfection, briefly, HEK-293 cells were maintained in Dulbecco's modified Eagle's medium (DMEM) with 10% fetal calf serum and seeded 1 day prior to transfection at 1 to 2×10^6 cell/100-mm dish. Melanocortin receptor DNA in the pcDNA3 expression vector (20 μg) were transfected using the calcium phosphate method. Stable receptor populations were generated using G418 selection (1 mg/mL) for subsequent bioassay analysis.
(§2) In the functional bioassay studies, HEK-293 cells stably expressing the melanocortin receptors were transfected with 4 μg CRE/β-galactosidase reporter gene as previously described in the literature. Briefly, 5,000 to 15,000 post transfection cells were plated into 96 well Primera plates (Falcon) and incubated overnight. […] The sample absorbance, OD405, was measured using a 96 well plate reader (Molecular Devices). The relative protein was determined by adding 200 μL 1:5 dilution Bio Rad G250 protein dye:water to the 10 μL cell lysate sample taken previously, and the OD595 was measured on a 96 well plate reader (Molecular Devices). […]
(§3) The pA2 values were generated using the Schild analysis method [Schild, H. O. pA2, A New Scale for the Measurement of Drug Antagonism. […] EC50 and pA2 estimates, and their associated standard errors, were determined by fitting the data to a nonlinear least-squares analysis using the PRISM program (v3.0, GraphPad Inc.).

Another assay deals with T2, mMC4R (Mus musculus, UniProt P56450).
T2 construct: expressed in transfected cells; host or cells: HEK-293
The assay can be described thus: Functional bioassay (CRE/β-galactosidase reporter), agonist activity at mMC4R. The class given is cell-based. Conditions: HEK-293 cells stably expressing receptor; ± SEM. The protocol: as §1, §2, §3

A further assay concerns food intake. Conditions: central / ICV administration to rodents, literature, cited from earlier work.
A further assay has as its target hMC3R (Homo sapiens, UniProt P41968). To be noted: literature (Danho et al); cited from earlier work.
The target in another assay is T3, human MC4R (Homo sapiens, UniProt P32245).
T3 construct: expressed in transfected cells; host or cells: HEK-293
Conditions: literature (Yang et al 2000; Danho et al); read-out: agonist activity at the human MC4 receptor; cited from earlier work.

Sequence of hMC3R (P41968 whole entry): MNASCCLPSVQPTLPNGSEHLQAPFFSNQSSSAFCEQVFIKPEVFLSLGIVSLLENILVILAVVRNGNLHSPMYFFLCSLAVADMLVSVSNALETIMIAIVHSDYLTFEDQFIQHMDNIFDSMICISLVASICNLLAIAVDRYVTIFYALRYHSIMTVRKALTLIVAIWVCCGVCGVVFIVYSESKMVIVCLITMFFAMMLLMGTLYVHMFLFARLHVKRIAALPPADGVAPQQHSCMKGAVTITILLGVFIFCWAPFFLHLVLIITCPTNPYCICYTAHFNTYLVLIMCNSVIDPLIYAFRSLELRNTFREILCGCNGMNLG
T2 sequence (P56450 whole entry): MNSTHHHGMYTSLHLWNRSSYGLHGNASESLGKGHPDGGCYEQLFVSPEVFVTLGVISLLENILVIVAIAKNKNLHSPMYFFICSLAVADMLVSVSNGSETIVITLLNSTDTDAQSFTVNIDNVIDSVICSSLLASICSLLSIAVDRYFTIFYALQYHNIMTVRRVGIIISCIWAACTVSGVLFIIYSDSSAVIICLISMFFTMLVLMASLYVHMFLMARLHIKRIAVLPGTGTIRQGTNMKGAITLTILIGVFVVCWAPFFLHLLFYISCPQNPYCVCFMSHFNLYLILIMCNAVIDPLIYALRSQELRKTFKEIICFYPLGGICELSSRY
T3 sequence (P32245 whole entry): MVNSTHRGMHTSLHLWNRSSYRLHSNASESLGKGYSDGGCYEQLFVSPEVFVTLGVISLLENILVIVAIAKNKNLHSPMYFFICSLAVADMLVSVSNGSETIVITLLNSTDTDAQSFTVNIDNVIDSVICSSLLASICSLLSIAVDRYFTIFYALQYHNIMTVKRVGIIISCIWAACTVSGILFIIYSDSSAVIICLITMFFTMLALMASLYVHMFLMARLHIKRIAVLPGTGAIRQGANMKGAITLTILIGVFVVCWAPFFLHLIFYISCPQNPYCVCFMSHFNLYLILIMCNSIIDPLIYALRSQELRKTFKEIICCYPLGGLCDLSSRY
T1 sequence (P41149 whole entry): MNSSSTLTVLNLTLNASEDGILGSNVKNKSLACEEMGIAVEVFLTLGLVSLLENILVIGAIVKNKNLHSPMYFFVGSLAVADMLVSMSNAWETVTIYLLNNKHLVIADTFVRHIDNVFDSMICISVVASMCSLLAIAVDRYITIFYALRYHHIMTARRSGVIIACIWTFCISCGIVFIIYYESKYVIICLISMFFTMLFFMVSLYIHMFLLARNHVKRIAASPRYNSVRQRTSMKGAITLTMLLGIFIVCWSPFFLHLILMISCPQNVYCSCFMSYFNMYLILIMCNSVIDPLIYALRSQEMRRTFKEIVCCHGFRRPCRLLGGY

Turning to `CC(=O)N[C@@H](Cc1c[nH]cn1)C(=O)N[C@H](Cc1ccccc1)C(=O)N[C@@H](CCCNC(=N)N)C(=O)N[C@@H](Cc1c[nH]c2ccccc12)C(N)=O` [JRH279-31, Ac-His-DPhe-Arg-Trp-NH2], the EC50 was found to be 3.96 ± 0.94 nM on mMC5R and 17.2 ± 2.78 nM at mMC4R.
On to “Ac-Nle-c[Asp-His-DNal(2′)-Arg-Trp-Lys]-NH2 [SHU91 19]”, for which the entries for the “effect on food intake” value in the assay with food intake and in the assay on food intake (listed as SHU-9119) were “increased food intake” and “can induce hyperphagia”, respectively.
With “c[Asp-(racemic)Atc-DPhe-Arg-Trp-Lys]-NH2”, the “agonist activity at the hMC3R (in words)” value at hMC3R is reported as “only slight agonist activity”. Besides, at human MC4R, the EC50 is 65 nM.

The record behind these values is patent publication US7368433B2, “Peptides and methods for the control of obesity” (University of Florida Research Foundation, Inc., priority 2002, dated 2008).
